Measurements as given in ChEMBL document CHEMBL2413024, “Design and synthesis of pyrido[3,2-α]carbazole derivatives and their analogues as potent antitumour agents” (Eur J Med Chem, 2013).

Columns and labels:
A549 [1] = assay: Antitumor activity against human A549 cells after 72 hrs by sulforhodamine B assay; assay type: functional, cell-based; conditions: A549, 72 h
HT-29 [2] = assay: Antitumor activity against human HT-29 cells after 72 hrs by sulforhodamine B assay; assay type: functional, cell-based; conditions: HT-29, 72 h
[3] = Aqueous solubility of the compound in pure water at 25 degC; assay type: physicochemical
HT-29 [4] = assay: Ratio of R16 IC50 to compound IC50 for human HT-29 cells; assay type: functional
A549 [5] = assay: Ratio of R16 IC50 to compound IC50 for human A549 cells; assay type: functional

| SMILES | IC50 (A549 [1]) [nM] | IC50 (HT-29 [2]) [nM] | solubility [3] [mg/mL] | Ratio IC50 (HT-29 [4]) | Ratio IC50 (A549 [5]) |
| --- | --- | --- | --- | --- | --- |
| Cn1c2ccccc2c2cc(C(=O)NCCN3CCOCC3)c3ncccc3c21 | 1180 | 2240 |  |  |  |
| CN(C)CCNC(=O)c1cc2c3ccccc3[nH]c2c2cccnc12 | 690 | 830 |  |  |  |
| CNCCNC(=O)c1cc2c3ccccc3n(C)c2c2cccnc12 | 1370 | 1460 |  |  |  |
| CN(C)CCNC(=O)c1cc2c3ccccc3n(C)c2c2cccnc12 | 390 | 470 |  |  |  |
| Cn1c2ccccc2c2cc(C(=O)NCCN)c3ncccc3c21 | 2110 | 2470 |  |  |  |
| CN(C)CCCNC(=O)c1cc2c3ccccc3oc2c2cccnc12 | 2230 | 2060 |  |  |  |
| CN(C)CCNC(=O)c1cc2c3cc(O)ccc3n(C)c2c2cccnc12.Cl |  |  | 22.4 |  |  |
| CN(C)CCNC(=O)c1cc2c3ccccc3oc2c2cccnc12 | 1890 | 2270 |  |  |  |
| Cn1c2ccccc2c2cc(C(=O)NCCN3CCNCC3)c3ncccc3c21 | 780 | 1250 |  |  |  |
| CN(C)CCCNC(=O)c1cc2c3ccccc3n(C)c2c2cccnc12 | 560 | 850 |  |  |  |
| CN(C)CCCNC(=O)c1cc2c3ccccc3[nH]c2c2cccnc12 | 770 | 1390 |  |  |  |
| CN(C)CCCNC(=O)c1cc2c3ccccc3sc2c2cccnc12 | 600 | 1160 |  |  |  |
| Cn1c2ccccc2c2cc(C(=O)NCCO)c3ncccc3c21 | 3060 | 4450 |  |  |  |
| CN1CCN(CCNC(=O)c2cc3c4ccccc4n(C)c3c3cccnc23)CC1 | 890 | 1240 |  |  |  |
| Cn1c2ccccc2c2cc(C(=O)NCCCN3CCOCC3)c3ncccc3c21 | 710 | 1410 |  |  |  |
| Cn1c2ccccc2c2cc(C(=O)NCCN3CCCCC3)c3ncccc3c21 | 820 | 1300 |  |  |  |
| Cn1c2ccccc2c2cc(C(=O)NCCCN3CCCC3)c3ncccc3c21 | 870 | 1060 |  |  |  |

Now from value to compound, other results behind:

| IC50 (A549 [1]) [nM] | IC50 (HT-29 [2]) [nM] | solubility [3] [mg/mL] | SMILES | Ratio IC50 (HT-29 [4]) | Ratio IC50 (A549 [5]) |
| --- | --- | --- | --- | --- | --- |
| 270 | 600 |  | CN(C)CCNC(=O)c1cc2c3ccccc3sc2c2cccnc12 |  |  |
| 200 | 1090 |  | CN(C)CCN1C(=O)c2cccc3c2c(cc2c4ccccc4sc32)C1=O |  |  |
| 160 | 180 |  | CN(C)CCNC(=O)c1cc2c3cccnc3n(C)c2c2cccnc12 |  |  |
| 130 | 130 |  | CN(C)CCNC(=O)c1cc2c3ccncc3n(C)c2c2cccnc12 |  |  |
| 160 | 150 |  | CN(C)CCNC(=O)c1cc2c3cnccc3n(C)c2c2cccnc12 |  |  |
| 70 | 110 |  | CN(C)CCNC(=O)c1cc2c3cc(O)ccc3n(C)c2c2cccnc12 | 10 | 7 |
| 260 | 230 |  | CN(C)CCNC(=O)c1cc2c3cc(Cl)ccc3n(C)c2c2cccnc12 |  |  |
| 360 | 220 |  | CN(C)CCNC(=O)c1cc2c3ncccc3n(C)c2c2cccnc12 |  |  |
| 220 | 200 |  | COc1ccc2c(c1)c1cc(C(=O)NCCN(C)C)c3ncccc3c1n2C |  |  |
| 170 | 160 |  | CN(C)CCNC(=O)c1cc2c3cc(F)ccc3n(C)c2c2cccnc12 |  |  |
| 270 | 630 |  | Cn1c2ccccc2c2cc(C(=O)NCCN3CCCC3)c3ncccc3c21 |  |  |
